These results are taken from US11174268B2, “Benzenesulfonamide compouds and their use as therapeutic agents” (Xenon Pharmaceuticals Inc., priority 2016, dated 2021).

The target of series [1] is T1, NaV1.6 (Homo sapiens (Human), UniProt Q9UQD0). Nature of the series: Sodium Influx Assay (Flux), NaV1.6.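 Further: Tetracycline-induced cells, compounds applied for one hour at room temperature with modulators holding channels open, IC50 from percent inhibition of sodium influx.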 It is filed as cell-based. The settings on record: Trex HEK293 cells, ANG2 dye, inactivated state.
Series [2] has as its target T1, NaV1.6. Nature of the series: Electrophysiological Assay (EP), patch voltage clamp, NaV1.6.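 Further: sodium current recorded at ambient temperature, channels held inactivated then briefly repolarized to −150 mV for 20 ms before a test pulse, control currents in 0.5% DMSO.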 It counts as cell-based. To be noted: HEK-293 cells, whole-cell patch clamp.
The target of the next series is NaV1.1 (Homo sapiens (Human), UniProt P35498). Nature of the series: Sodium Influx Assay (Flux), NaV1.1.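 Further: channels co-expressed with human β1 subunit and held open by modulators, cells exposed to compounds for one hour at room temperature, IC50 from percent inhibition of influx.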 It counts as cell-based. The settings on record: Trex HEK293 cells, ANG2 dye, inactivated state.
In another series the target is NaV1.5 (Homo sapiens (Human), UniProt Q14524). As to the kind of experiment: Sodium Influx Assay (Flux), NaV1.5. The settings on record: read-out: Flux NaV1.5 IC50; Trex HEK293 cells, ANG2 dye, inactivated state.

pIC50: −log10 of the molar value. Where a name gives a salt, the structure may show the parent alone.

T1 sequence (Q9UQD0 whole entry): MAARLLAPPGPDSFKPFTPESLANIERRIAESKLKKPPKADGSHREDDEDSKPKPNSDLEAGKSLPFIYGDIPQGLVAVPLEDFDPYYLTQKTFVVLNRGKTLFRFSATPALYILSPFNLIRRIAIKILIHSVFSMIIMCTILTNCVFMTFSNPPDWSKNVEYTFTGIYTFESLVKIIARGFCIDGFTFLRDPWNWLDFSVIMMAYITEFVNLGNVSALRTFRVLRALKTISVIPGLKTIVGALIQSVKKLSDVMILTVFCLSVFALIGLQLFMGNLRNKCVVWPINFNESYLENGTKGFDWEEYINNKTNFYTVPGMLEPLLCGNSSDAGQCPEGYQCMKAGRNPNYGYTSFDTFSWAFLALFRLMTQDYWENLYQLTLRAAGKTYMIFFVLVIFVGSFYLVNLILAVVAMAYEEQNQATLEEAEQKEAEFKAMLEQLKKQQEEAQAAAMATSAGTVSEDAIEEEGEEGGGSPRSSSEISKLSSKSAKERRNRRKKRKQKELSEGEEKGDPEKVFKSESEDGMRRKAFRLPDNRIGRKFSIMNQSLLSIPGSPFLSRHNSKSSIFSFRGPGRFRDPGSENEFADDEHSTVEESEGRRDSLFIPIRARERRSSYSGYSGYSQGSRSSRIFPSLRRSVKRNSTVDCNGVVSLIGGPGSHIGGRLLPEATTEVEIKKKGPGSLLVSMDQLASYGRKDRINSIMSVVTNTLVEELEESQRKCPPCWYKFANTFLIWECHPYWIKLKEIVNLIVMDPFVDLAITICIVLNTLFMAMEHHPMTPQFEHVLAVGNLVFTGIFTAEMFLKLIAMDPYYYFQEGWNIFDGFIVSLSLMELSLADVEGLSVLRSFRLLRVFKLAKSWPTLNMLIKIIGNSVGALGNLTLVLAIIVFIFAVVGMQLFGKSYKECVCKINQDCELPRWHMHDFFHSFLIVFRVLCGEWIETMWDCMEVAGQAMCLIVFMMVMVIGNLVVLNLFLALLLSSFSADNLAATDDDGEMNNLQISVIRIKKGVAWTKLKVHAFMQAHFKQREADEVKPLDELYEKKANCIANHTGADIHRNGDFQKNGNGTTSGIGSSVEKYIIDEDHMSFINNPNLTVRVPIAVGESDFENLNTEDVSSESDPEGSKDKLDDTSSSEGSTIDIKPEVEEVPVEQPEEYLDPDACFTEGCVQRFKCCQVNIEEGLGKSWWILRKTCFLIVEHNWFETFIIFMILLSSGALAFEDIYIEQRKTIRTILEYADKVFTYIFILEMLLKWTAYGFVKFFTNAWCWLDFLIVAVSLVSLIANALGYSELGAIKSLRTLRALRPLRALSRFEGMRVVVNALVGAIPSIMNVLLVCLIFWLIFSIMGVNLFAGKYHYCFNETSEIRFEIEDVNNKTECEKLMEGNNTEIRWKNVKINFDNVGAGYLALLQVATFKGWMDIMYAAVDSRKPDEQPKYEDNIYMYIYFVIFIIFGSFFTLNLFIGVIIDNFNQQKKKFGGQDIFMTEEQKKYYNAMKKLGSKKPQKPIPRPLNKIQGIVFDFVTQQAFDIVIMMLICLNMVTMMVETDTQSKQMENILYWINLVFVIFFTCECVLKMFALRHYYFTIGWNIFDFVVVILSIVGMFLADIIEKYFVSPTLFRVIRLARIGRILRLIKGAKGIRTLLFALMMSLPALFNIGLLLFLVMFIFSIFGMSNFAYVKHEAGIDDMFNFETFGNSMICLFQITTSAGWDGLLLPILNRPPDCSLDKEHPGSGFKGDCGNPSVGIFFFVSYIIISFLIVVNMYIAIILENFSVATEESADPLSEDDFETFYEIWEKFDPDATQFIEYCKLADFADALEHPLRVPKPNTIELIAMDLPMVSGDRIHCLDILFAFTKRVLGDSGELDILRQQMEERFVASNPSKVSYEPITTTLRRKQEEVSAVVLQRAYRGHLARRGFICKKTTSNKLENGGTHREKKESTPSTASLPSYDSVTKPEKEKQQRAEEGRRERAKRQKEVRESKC
Chain of NaV1.5 (Q14524 other isoform, or with tags, fused parts or gaps): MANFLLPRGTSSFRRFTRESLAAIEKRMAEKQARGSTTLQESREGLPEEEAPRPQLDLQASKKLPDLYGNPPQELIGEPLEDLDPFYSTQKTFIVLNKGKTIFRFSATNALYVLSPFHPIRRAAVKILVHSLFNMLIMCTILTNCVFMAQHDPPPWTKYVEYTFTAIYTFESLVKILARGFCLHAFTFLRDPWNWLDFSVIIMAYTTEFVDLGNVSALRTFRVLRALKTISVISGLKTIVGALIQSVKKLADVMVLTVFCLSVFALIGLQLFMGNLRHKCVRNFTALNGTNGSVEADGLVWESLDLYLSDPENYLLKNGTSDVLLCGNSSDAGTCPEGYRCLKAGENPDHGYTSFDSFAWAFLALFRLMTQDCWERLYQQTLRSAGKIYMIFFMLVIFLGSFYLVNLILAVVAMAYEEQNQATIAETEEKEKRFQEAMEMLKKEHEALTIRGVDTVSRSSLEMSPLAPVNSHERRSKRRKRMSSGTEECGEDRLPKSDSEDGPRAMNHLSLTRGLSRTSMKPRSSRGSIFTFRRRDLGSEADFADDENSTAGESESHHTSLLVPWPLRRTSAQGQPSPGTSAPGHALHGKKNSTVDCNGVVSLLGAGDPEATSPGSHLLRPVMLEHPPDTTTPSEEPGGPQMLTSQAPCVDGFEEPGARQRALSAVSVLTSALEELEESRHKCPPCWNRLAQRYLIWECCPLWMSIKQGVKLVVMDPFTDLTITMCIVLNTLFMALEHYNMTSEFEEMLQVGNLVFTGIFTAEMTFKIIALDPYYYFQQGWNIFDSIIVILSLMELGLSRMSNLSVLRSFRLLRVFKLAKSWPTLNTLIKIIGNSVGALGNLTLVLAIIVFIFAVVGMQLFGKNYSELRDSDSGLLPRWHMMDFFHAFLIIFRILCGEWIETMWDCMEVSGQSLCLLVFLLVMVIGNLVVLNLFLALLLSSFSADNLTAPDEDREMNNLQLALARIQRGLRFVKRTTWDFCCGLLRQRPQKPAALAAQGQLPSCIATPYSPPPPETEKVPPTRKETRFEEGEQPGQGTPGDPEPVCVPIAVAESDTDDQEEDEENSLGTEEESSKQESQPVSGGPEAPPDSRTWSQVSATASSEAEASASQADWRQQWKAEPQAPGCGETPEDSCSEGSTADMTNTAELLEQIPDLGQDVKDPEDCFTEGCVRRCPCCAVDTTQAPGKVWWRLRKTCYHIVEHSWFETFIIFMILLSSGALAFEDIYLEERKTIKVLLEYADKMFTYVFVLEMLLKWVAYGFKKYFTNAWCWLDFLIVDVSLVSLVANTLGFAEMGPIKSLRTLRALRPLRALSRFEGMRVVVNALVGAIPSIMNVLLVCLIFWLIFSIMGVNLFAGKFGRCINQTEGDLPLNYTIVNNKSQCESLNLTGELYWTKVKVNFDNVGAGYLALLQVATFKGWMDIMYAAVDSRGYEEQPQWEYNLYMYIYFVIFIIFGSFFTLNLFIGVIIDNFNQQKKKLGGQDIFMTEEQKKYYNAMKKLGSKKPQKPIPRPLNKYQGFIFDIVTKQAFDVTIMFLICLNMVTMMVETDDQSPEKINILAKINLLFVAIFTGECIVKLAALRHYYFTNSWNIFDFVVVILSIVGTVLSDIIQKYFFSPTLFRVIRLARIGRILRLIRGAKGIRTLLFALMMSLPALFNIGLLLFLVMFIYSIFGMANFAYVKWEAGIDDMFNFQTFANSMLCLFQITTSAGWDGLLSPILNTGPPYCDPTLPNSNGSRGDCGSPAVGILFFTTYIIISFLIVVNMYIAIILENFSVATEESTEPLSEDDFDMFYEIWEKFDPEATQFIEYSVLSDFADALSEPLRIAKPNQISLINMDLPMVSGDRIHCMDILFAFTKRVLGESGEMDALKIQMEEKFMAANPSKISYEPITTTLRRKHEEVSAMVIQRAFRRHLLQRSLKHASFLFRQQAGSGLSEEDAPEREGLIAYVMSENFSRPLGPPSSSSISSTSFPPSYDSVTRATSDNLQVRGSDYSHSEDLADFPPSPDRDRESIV

As usually defined, the pIC50 is the negative decadic logarithm of the IC50, by convention in mol/L. In the case of `CC[C@H](Nc1ccc(S(=O)(=O)Nc2ncns2)cc1Cl)c1ccccc1` [Example 32, (S)-3-chloro-4-((1-phenylpropyl)amino)-N-(1,2,4-thiadiazol-5-yl)benzenesulfonamide], the pIC50 on NaV1.6 [1] is 7.04; on NaV1.6 [2], 7.64; against NaV1.1, 5.98; on NaV1.5 it was 4.89.
Taken in the same sequence, the figures for `CCC(Nc1cc(F)c(S(=O)(=O)Nc2ncns2)cc1F)c1ccccc1` (stereo not shown) [Example 85, 2,5-difluoro-4-((1-phenylpropyl)amino)-N-(1,2,4-thiadiazol-5-yl)benzenesulfonamide] were 6.97, 7.11, 6.29 and 4.52.
For `CCC(Nc1cc(F)c(S(=O)(=O)Nc2cccc(F)n2)cc1Cl)c1ccccc1` (stereo not shown) [Example 86, 5-chloro-2-fluoro-N-(6-fluoropyridin-2-yl)-4-((1-phenylpropyl)amino)benzenesulfonamide], the pIC50 on NaV1.6 [1] is 5.39; at NaV1.6 [2] it was 6.25; at NaV1.1 it was 4.78; on NaV1.5 it was 4.89.
In the same order, the values of `COC1(C)CN(Cc2cccc(F)c2CNc2cc(F)c(S(=O)(=O)Nc3cscn3)c(F)c2)C1` [Example 172, 2,6-difluoro-4-((2-fluoro-6-((3-methoxy-3-methylazetidin-1-yl)methyl)benzyl)amino)-N-(thiazol-4-yl)benzenesulfonamide formate] are 7.11, 7.64, 4.59 and 4.52.
As to `O=S(=O)(Nc1ccsn1)c1c(F)cc(NCc2c(F)cccc2CN2CCC2)cc1F` [Example 188, 4-((2-(azetidin-1-ylmethyl)-6-fluorobenzyl)amino)-2,6-difluoro-N-(isothiazol-3-yl)benzenesulfonamide 2,2,2-trifluoroacetate], the pIC50 is 7.60 against NaV1.6 [1], 7.92 against NaV1.6 [2], 5.04 on NaV1.1 and 4.52 on NaV1.5.
Turning to `O=S(=O)(Nc1ccon1)c1c(F)cc(NCc2c(F)cccc2CN2CCC2)cc1F` [Example 204, 4-((2-(azetidin-1-ylmethyl)-6-fluorobenzyl)amino)-2,6-difluoro-N-(isoxazol-3-yl)benzenesulfonamide 2,2,2-trifluoroacetate], the pIC50 on NaV1.6 [1] was 6.73; against NaV1.6 [2] it was 7.09; on NaV1.1, 4.52; at NaV1.5, 4.64.
In the same order, the values of `O=S(=O)(Nc1cscn1)c1ccc(NCc2c(F)ccc(F)c2CN2CCC2)c(F)c1F` [Example 213, 4-((2-(azetidin-1-ylmethyl)-3,6-difluorobenzyl)amino)-2,3-difluoro-N-(thiazol-4-yl)benzenesulfonamide 2,2,2-trifluoroacetate] are 6.81, 7.68, 4.52 and 4.52.
In the same order, the values of `O=S(=O)(Nc1cscn1)c1c(F)cc(NCc2c(F)ccc(F)c2CN2CCC2)c(F)c1F` [Example 215, 4-((2-(azetidin-1-ylmethyl)-3,6-difluorobenzyl)amino)-2,3,6-trifluoro-N-(thiazol-4-yl)benzenesulfonamide 2,2,2-trifluoroacetate] are 7.68, 8.52, 4.99 and 4.67.
For `Cc1c(NCc2c(F)cccc2CN2CCC2)cc(F)c(S(=O)(=O)Nc2cscn2)c1F` [Example 304, 4-((2-(azetidin-1-ylmethyl)-6-fluorobenzyl)amino)-2,6-difluoro-3-methyl-N-(thiazol-4-yl)benzenesulfonamide 2,2,2-trifluoroacetate], the pIC50 on NaV1.6 [1] is 8.10; against NaV1.6 [2] it was 8.70; at NaV1.1, 5.28; on NaV1.5, 4.67.
Taken in the same sequence, the figures for `Cc1c(NCc2ccccc2CN2CCC2)cc(F)c(S(=O)(=O)Nc2ccncn2)c1F` [Example 310, 4-((2-(azetidin-1-ylmethyl)benzyl)amino)-2,6-difluoro-3-methyl-N-(pyrimidin-4-yl)benzenesulfonamide 2,2,2-trifluoroacetate] were 8.00, 7.96, 4.69 and 4.52.
Taken in the same sequence, the figures for `Cc1cc(-c2cccc(F)c2CNc2cc(F)c(S(=O)(=O)Nc3cscn3)c(F)c2)ccn1` [Example 317, 2,6-difluoro-4-((2-fluoro-6-(2-methylpyridin-4-yl)benzyl)amino)-N-(thiazol-4-yl)benzenesulfonamide formate] were 6.48, 6.01, 5.41 and 4.52.
As for `O=S(=O)(Nc1cnsc1)c1c(F)cc(NCc2c(F)cccc2CN2CCC2)cc1F` [Example 318, 4-((2-(azetidin-1-ylmethyl)-6-fluorobenzyl)amino)-2,6-difluoro-N-(isothiazol-4-yl)benzenesulfonamide], the negative-log IC50 (pIC50) against NaV1.6 [1] was 5.22; against NaV1.1, 4.69; at NaV1.5, 4.76.
On to `O=S(=O)(Nc1cscn1)c1c(F)cc(NCc2ccccc2CCN2CC(F)(F)C2)cc1F` [Example 319, 4-((2-(2-(3,3-difluoroazetidin-1-yl)ethyl)benzyl)amino)-2,6-difluoro-N-(thiazol-4-yl)benzenesulfonamide], for which the figures for the pIC50 on NaV1.6 [1], on NaV1.1 and at NaV1.5 were 5.64, 4.74 and 4.70, respectively.
Taken in the same sequence, the figures for `O=S(=O)(Nc1cscn1)c1c(F)cc(NCc2ccccc2CCN2CC(F)C2)cc1F` [Example 320, 4-((2-(2-(3-fluoroazetidin-1-yl)ethyl)benzyl)amino)-2,6-difluoro-N-(thiazol-4-yl)benzenesulfonamide formate] were 7.26, 5.19 and 4.75.
Take `O=S(=O)(Nc1cscn1)c1cc(Cl)c(N[C@@H]2C[C@H](N3CCC3)c3ccccc32)cc1F` [Example 321, 4-(((1R,3S)-3-(azetidin-1-yl)-2,3-dihydro-1H-inden-1-yl)amino)-5-chloro-2-fluoro-N-(thiazol-4-yl)benzenesulfonamide formate]: the negative-log IC50 (pIC50) is 7.04 against NaV1.6 [1], 5.32 at NaV1.1 and 4.55 on NaV1.5.
As to `O=S(=O)(Nc1cccc(F)n1)c1c(F)cc(NCc2c(F)cccc2CN2CCC2)cc1F` [Example 322, 4-((2-(azetidin-1-ylmethyl)-6-fluorobenzyl)amino)-2,6-difluoro-N-(6-fluoropyridin-2-yl)benzenesulfonamide formate], the pIC50 against NaV1.6 [1] was 6.94; against NaV1.6 [2], 7.33; against NaV1.1, 5.11; on NaV1.5 it was 4.52.
As for `C=Cc1cc(S(=O)(=O)Nc2cscn2)c(F)cc1NCc1ccccc1CN1CCC1` [Example 323, 4-((2-(azetidin-1-ylmethyl)benzyl)amino)-2-fluoro-N-(thiazol-4-yl)-5-vinylbenzenesulfonamide formate], the pIC50 on NaV1.6 [1] was 6.29; against NaV1.1, 5.03; at NaV1.5, 4.82.
In the same order, the values of `O=S(=O)(Nc1cccc(F)n1)c1c(F)cc(NCc2ccccc2CN2CCC2)cc1F` [Example 324, 4-((2-(azetidin-1-ylmethyl)benzyl)amino)-2,6-difluoro-N-(6-fluoropyridin-2-yl)benzenesulfonamide] are 6.19, 4.72 and 4.52.
Consider `O=S(=O)(Nc1ncns1)c1c(F)cc(NCc2ccccc2CN2CCC2)c(Cl)c1F` [Example 327, 4-((2-(azetidin-1-ylmethyl)benzyl)amino)-3-chloro-2,6-difluoro-N-(1,2,4-thiadiazol-5-yl)benzenesulfonamide formate], for which the negative logarithm of the IC50 (pIC50) on NaV1.6 [1] is 8.52; against NaV1.6 [2], 9.00; on NaV1.1 it was 5.35; on NaV1.5 it was 4.52.
`Cc1cc(S(=O)(=O)Nc2cccc(F)n2)c(F)cc1NCc1ccccc1CN1CCC1` [Example 329, 4-((2-(azetidin-1-ylmethyl)benzyl)amino)-2-fluoro-N-(6-fluoropyridin-2-yl)-5-methylbenzenesulfonamide]: the pIC50 is 6.67 against NaV1.6 [1], 5.09 against NaV1.1 and 4.55 on NaV1.5.
Regarding `O=S(=O)(Nc1nccs1)c1cc(Cl)c(N[C@H](c2ccccc2F)C(F)(F)F)cc1F` [Example 332, (R)-5-chloro-2-fluoro-N-(thiazol-2-yl)-4-((2,2,2-trifluoro-1-(2-fluorophenyl)ethyl)amino)benzenesulfonamide], the negative logarithm of the IC50 (pIC50) was 6.56 against NaV1.6 [1], 6.08 at NaV1.1 and 5.14 at NaV1.5.
With `CC1(F)CN(Cc2cccc(F)c2CNc2cc(F)c(S(=O)(=O)Nc3ccon3)c(F)c2)C1` [Example 337, 2,6-difluoro-4-((2-fluoro-6-((3-fluoro-3-methylazetidin-1-yl)methyl)benzyl)amino)-N-(isoxazol-3-yl)benzenesulfonamide formate], the pIC50 against NaV1.6 [1] is 6.58; at NaV1.1, 4.84; at NaV1.5, 4.52.
As to `CC[C@H](Oc1cc(F)c(S(=O)(=O)Nc2cscn2)cc1Cl)c1ccccc1F` [Example 338, (S)-5-chloro-2-fluoro-4-(1-(2-fluorophenyl)propoxy)-N-(thiazol-4-yl)benzenesulfonamide], the negative logarithm of the IC50 (pIC50) on NaV1.6 [1] is 5.79; on NaV1.1 it was 5.24; at NaV1.5 it was 5.58.
In the same order, the values of “(R)-5-chloro-2-fluoro-4-((1-(isoquinolin-8-yl)ethyl)amino)-N-(thiazol-2-yl)benzenesulfonamide [Example 13]” are 5.23, 4.52 and 4.52.
Taken in the same sequence, the figures for “(S)-5-chloro-2-fluoro-4-((1-(isoquinolin-8-yl)ethyl)amino)-N-(thiazol-2-yl)benzenesulfonamide [Example 12]” were 5.70, 4.52 and 4.52.
